Measurements reported in ChEMBL document CHEMBL1201862, “PubChem BioAssay data set” (2004).
Calls of active or inactive are those of the source.

Tests used:
[1] = biological target: Metabotropic glutamate receptor 3 (Rattus norvegicus, UniProt P31422); assay: mGlu3 negative allosteric modulator potency, dose response, HEK/GIRK cells, thallium flux, rat (AID 651839); assay type: functional
[2] = Mycobacterium tuberculosis BioA enzyme inhibitor Measured in Biochemical System Using Plate Reader - 2163-02_Inhibitor_Dose_DryPowder_Activity.
Mu-type opioid receptor = Mu-type opioid receptor (Homo sapiens, UniProt P35372); assay: Late-stage results from the probe development effort to identify antagonists of OPRK1: luminescence-based cell-based dose response OPRM1 counterscreen.; assay type: functional
Mu-type opioid receptor, sequence (P35372 whole entry): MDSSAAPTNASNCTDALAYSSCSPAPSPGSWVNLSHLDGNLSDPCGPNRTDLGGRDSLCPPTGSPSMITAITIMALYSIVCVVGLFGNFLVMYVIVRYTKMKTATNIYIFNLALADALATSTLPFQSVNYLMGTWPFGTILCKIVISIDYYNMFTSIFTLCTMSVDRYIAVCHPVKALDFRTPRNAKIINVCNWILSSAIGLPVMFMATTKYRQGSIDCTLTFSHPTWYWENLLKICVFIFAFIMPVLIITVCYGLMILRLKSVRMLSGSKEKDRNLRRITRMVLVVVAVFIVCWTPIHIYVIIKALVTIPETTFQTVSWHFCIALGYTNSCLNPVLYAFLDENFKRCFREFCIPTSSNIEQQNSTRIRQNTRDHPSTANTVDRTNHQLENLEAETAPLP

[3] = biological target: Delta-type opioid receptor (Homo sapiens, UniProt P41143); assay: Late-stage results from the probe development effort to identify antagonists of OPRK1: fluorescence-based cell-based dose response OPRD1 counterscreen.; assay type: functional
Delta-type opioid receptor, sequence (P41143 whole entry): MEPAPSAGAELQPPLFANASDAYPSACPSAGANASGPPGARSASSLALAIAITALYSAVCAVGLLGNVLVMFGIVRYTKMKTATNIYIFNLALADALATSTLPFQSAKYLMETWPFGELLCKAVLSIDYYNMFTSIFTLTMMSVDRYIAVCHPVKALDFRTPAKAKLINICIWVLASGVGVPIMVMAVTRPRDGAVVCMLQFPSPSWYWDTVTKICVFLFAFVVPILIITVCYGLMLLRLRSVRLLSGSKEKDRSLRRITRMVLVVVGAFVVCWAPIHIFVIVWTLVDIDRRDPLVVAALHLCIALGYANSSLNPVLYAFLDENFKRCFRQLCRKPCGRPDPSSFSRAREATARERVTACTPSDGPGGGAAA

[4] = biological target: 1-phosphatidylinositol 4,5-bisphosphate phosphodiesterase gamma-1 (Homo sapiens, UniProt P19174); assay: Counterscreen for inhibitors of phospholipase C isozymes (PLC-B3): Fluorescence-based biochemical high throughput dose response assay to identify inhibitors of phospholipase C isozymes (PLC-gamma1).
1-phosphatidylinositol 4,5-bisphosphate phosphodiesterase gamma-1, sequence (P19174 whole entry): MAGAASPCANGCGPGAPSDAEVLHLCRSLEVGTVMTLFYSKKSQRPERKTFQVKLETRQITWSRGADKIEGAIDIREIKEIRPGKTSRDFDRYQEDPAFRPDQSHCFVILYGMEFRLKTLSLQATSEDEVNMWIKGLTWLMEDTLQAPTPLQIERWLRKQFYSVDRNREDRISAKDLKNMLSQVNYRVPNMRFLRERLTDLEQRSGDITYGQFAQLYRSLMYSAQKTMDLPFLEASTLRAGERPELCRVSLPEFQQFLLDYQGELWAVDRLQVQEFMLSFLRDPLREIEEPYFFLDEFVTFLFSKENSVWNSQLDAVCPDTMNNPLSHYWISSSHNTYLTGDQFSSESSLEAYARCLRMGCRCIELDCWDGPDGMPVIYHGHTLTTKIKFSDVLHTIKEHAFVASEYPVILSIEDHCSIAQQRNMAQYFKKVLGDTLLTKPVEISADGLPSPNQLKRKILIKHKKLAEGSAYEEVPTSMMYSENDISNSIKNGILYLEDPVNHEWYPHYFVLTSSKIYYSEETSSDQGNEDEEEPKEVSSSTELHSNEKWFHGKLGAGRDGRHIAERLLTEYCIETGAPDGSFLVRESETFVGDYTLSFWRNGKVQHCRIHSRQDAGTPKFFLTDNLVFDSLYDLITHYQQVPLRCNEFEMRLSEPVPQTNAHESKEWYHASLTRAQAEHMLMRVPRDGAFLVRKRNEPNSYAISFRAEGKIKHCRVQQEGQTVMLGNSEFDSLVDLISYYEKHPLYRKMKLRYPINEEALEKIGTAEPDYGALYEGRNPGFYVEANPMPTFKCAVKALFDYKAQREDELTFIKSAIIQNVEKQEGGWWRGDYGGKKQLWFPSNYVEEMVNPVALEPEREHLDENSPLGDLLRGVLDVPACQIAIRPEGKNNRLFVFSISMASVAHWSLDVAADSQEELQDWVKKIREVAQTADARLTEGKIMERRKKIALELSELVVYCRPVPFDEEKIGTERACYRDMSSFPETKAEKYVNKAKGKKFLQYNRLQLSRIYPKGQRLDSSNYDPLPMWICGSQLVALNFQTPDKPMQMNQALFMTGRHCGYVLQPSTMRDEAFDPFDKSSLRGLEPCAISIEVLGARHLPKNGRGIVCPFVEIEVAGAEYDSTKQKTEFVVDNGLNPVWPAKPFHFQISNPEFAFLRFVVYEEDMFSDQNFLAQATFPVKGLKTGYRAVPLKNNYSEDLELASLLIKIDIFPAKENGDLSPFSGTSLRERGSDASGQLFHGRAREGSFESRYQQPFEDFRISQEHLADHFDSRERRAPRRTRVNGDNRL

[5] = ADAM10 inhibitors, peptide cleavage, dose response, biochemical, QFRET (AID 743254);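 further: ADAM10 enzyme with the DM2 quenched FRET peptide as substrate; EDANS fluorescence gain as the protease cuts the substrate; inhibitor potency against ADAM10 proteolytic activity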
[6] = biological target: 1-phosphatidylinositol 4,5-bisphosphate phosphodiesterase beta-3 (Homo sapiens, UniProt Q01970); assay: Fluorescence-based biochemical high throughput dose response assay to identify inhibitors of phospholipase C isozymes (PLC-B3).
1-phosphatidylinositol 4,5-bisphosphate phosphodiesterase beta-3, sequence (Q01970 whole entry, the tested form may be a part): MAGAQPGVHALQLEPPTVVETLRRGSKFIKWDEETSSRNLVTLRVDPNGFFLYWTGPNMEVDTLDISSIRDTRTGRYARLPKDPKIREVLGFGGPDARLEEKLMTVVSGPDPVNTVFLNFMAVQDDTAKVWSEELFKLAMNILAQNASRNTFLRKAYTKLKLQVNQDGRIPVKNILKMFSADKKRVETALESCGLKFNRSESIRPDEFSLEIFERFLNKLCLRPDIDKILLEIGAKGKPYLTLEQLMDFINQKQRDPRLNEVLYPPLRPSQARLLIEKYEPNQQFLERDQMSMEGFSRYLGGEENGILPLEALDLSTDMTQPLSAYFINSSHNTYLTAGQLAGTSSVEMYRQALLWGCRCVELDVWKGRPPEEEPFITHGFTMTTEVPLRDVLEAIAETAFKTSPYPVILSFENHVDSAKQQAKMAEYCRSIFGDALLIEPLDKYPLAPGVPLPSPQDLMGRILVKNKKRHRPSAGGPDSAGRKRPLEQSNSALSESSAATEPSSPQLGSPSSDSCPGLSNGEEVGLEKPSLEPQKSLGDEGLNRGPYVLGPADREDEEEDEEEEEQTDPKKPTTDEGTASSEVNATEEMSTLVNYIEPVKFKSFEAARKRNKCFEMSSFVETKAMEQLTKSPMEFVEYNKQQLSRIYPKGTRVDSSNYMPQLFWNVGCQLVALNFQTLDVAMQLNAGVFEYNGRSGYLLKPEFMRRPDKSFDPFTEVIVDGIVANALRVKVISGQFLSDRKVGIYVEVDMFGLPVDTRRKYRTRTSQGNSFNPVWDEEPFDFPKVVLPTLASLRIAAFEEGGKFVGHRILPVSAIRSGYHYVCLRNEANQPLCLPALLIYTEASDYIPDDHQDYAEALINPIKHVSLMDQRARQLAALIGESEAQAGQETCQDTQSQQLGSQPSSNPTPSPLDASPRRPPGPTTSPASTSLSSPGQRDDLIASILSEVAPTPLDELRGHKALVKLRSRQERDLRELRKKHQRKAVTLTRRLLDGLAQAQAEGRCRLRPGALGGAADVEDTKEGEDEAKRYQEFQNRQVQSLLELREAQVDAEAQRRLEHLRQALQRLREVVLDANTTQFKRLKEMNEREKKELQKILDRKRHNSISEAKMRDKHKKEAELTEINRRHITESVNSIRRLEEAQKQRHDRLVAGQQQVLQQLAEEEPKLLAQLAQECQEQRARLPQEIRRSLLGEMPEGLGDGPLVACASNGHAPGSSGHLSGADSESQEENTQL

[7] = biological target: Disintegrin and metalloproteinase domain-containing protein 17 (Homo sapiens, UniProt P78536); assay: ADAM17 protease inhibitors, dose response, counter-screen for ADAM10 exosite inhibitor project, biochemical, quenched FRET substrate (AID 743253)
Disintegrin and metalloproteinase domain-containing protein 17, sequence (P78536 whole entry, the tested form may be a part): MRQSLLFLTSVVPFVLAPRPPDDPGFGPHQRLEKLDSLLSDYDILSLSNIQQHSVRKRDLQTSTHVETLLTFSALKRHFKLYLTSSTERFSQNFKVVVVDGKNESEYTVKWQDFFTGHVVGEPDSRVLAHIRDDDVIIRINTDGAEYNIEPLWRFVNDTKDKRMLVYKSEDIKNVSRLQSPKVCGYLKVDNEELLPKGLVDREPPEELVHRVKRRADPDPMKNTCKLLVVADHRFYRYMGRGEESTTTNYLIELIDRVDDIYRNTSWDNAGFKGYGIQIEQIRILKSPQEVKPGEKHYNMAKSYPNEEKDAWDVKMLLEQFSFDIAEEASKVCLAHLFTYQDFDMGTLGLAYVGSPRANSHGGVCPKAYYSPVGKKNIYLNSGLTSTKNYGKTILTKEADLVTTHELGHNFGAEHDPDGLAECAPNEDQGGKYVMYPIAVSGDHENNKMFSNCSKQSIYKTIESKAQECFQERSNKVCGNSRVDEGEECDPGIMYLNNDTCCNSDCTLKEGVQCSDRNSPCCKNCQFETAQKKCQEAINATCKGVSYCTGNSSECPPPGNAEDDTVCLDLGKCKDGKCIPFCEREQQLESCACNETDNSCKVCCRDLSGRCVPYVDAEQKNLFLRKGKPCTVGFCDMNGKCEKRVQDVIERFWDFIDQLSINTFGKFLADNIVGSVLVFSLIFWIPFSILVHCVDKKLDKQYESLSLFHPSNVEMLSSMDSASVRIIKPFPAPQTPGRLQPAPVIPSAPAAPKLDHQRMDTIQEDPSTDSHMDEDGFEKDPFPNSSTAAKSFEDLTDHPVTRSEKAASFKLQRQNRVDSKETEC

INS1 = assay: beta cell apoptosis inhibitors, cytokine rescue, dose response, luminescence, retest (AID 449756); assay type: functional, cell-based; settings: Rattus norvegicus;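 further: cell death triggered by IL-1 beta plus TNF-alpha plus IFN-gamma mixture; protective hits raise ATP signal compared with cytokine alone wells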
[8] = growth suppression of PTEN-null colon cells, dose response, cell-based, HCT116 PTEN knockout (AID 1047); assay type: functional;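 further: HCT116 colon tumor cells with PTEN knocked out; cells exposed to compound for 60 hours before readout; potency for loss of cell viability measured by luminescence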
[9] = HepG2 cell cytotoxicity, dose response, cytotoxicity control for Shn3 inhibitor project, CellTiter-Glo, cherry-picked (AID 624134); assay type: functional, cell-based
[10] = HEK293T cytotoxicity, dose response, cytotoxicity control for miR-122 modulator project, cell-based, activator set, cherry-pick (AID 720690); assay type: functional;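 further: HEK293T human cells scored for general mammalian cytotoxicity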
[11] = growth suppression of beta-catenin-knockout colon cells, dose response, cell-based, HCT116, human colon tumor (AID 1045); assay type: functional;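 further: HCT116 colon tumor cells with beta catenin knocked out; cells exposed to compound for 60 hours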
[12] = HEK293T cytotoxicity, dose response, cytotoxicity control for miR-122 modulator project, cell-based, inhibitor set, cherry-pick, set 2 (AID 720697); assay type: functional
[13] = inhibitors of control Renilla luciferase reporter, dose response, counter-screen for Shn3 3'UTR targeting project, Clone20-Shn3RL cells, dual-Glo, cherry-pick, set 2 (AID 720724); assay type: functional, cell-based; settings: Dual-Go Shn3RL
[14] = control 3'UTR Renilla luciferase suppression, dose response, counter-screen for Shn3 inhibitor project, cell-based, Clone20-Shn3RL, cherry-picked (AID 624133); assay type: functional
[15] = reduction of Shn3 3'UTR firefly luciferase signal, dose response, Schnurri-3 inhibitor project, cell-based, Clone20 osteoblasts, cherry-pick, set 2 (AID 720490); assay type: functional;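 further: actives lower the luminescence signal as inhibitors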
[16] = biological target: T1, Ubiquitin-conjugating enzyme E2 N (Homo sapiens, UniProt P61088); assay type: functional;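 further: Dose-response confirmation in a TR-FRET assay detecting UBC13-driven polyubiquitin chain formation, inhibition measured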
T1 sequence (P61088 whole entry): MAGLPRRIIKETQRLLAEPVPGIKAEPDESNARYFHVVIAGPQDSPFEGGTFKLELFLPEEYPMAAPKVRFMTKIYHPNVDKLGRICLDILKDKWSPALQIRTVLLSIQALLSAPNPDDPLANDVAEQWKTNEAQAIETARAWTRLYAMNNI

[17] = Shn3 3'UTR reporter inhibitors, dose response, cell-based, Clone20 osteoblasts, firefly luciferase, cherry-picked (AID 624132); assay type: functional;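 further: firefly luciferase luminescence from reporter carrying the Shn3 3'UTR in osteoblasts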

Metabotropic glutamate receptor 3, sequence (P31422 whole entry): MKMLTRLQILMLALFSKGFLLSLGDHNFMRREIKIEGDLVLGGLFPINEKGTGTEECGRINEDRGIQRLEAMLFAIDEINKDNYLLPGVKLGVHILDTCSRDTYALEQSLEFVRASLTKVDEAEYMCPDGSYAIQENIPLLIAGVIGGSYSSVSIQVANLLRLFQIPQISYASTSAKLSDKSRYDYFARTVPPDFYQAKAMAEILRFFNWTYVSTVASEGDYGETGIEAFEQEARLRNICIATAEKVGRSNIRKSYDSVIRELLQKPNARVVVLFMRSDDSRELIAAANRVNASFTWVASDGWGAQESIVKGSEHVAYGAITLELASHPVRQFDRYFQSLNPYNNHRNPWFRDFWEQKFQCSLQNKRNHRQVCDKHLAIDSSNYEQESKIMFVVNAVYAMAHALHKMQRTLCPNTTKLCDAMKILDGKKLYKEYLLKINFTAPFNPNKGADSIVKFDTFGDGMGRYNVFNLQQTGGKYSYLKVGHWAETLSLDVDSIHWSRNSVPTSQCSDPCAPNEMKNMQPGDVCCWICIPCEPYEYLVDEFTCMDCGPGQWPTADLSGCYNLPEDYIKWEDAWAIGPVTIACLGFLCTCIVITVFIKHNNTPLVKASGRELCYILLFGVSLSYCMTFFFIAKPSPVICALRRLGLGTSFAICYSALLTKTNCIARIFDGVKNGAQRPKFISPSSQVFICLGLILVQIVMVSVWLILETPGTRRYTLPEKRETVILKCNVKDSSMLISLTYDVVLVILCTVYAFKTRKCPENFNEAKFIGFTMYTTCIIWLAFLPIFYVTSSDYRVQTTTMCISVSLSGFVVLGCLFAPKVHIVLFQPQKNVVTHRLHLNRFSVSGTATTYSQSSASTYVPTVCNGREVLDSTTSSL

## O=C(c1ccc(C#Cc2ccc3c(c2)OCO3)cc1)N1CCCC(CO)C1 (centres undefined)
[1]
  IC50: 7.26 µM (active)

## Cc1ccc(/C=C(\CC(=O)O)c2nc3ccccc3s2)cc1[N+](=O)[O-]
[2]
  AC50: 14.3 µM (active)

## COC(=O)c1cc(I)cnc1N1CCC(NC2CCCCC2)CC1
Mu-type opioid receptor
  IC50: 479 nM (active)
[3]
  IC50: 2.5 µM (active)

## CN1C(=O)c2cc(NC(=O)Nc3ccccc3F)ccc2OC[C@H]2O[C@@H](CC(=O)NCc3ccc(-c4ccccc4)cc3)CC[C@@H]21
[4]
  IC50: > 122 µM (inactive)
[5]
  IC50: > 69.5 µM (inactive)
[6]
  IC50: > 122 µM (inactive)
[7]
  IC50: > 69.5 µM (inactive)

## CCCCNc1cc(C)nc(NCc2ccccc2)n1
INS1
  AC50: 2.49 µM (active)
[8]
  EC50: 4.04 µM (active)
[9]
  AC50: 13.8 µM (active)
[10]
  AC50: 10.6 µM (active)
[11]
  EC50: 3.96 µM (active)
[12]
  AC50: 7.51 µM (active)
[13]
  AC50: 31.1 µM (active)
[14]
  AC50: 3.36 µM (active)
[15]
  AC50: 1.19 µM (active)
[16]
  IC50: > 20 µM (inactive)
[17]
  AC50: 719 nM (active)
